Reference: patent publication US12122780B2, “Pyrimidinyl group-containing tricyclic compound serving as c-Met inhibitor” (JIANGSU AOSAIKANG PHARMACEUTICAL CO., LTD., priority 2019, dated 2024)
Counter-ions that a name gives are not always drawn.

Columns and labels:
EBC-1 cells = assay: EBC-1 cell proliferation experiment (CellTiter-Glo); format: cell-based, human; conditions: 3 days
Method: MEM medium, fetal bovine serum, penicillin/streptomycin antibiotics were purchased from Wisent. EBC-1 cell line was purchased from Nanjing COBIO Bioscience Co., LTD. Envision multi-label analyzer (PerkinElmer).
EBC-1 cells were seeded in a white 96-well plate, […] cell suspension per well, which contained 3000 EBC-1 cells. The cell plate was placed in a carbon dioxide incubator for overnight culture.
The compound to be tested was diluted 5-fold to the eighth concentration with a discharge gun, i.e., from 2 mM to […], and double duplicate wells experiment was set. 78 μL of the medium was added to the middle plate, then 2 μL per well of gradient diluted compound was transferred to the corresponding position on the middle plate, then mixed well and 20 μL per well was transferred to the cell plate. The cell plate was cultured in a carbon dioxide incubator for 3 days. Another cell plate was prepared and the signal values were read on the day of dosing as […] to be used in the data analysis. 25 μL of Promega CellTiter-Glo was added to each well of this cell plate, and incubated at room temperature for 10 minutes to stabilize the luminescence signal. Readings were taken using a PerkinElmer Envision multi-label analyzer.
25 μL of Promega CellTiter-Glo reagent was added to each well of this cell plate, and incubated at room temperature for 10 minutes to stabilize the luminescence signal. Readings were taken using a PerkinElmer Envision multi-label analyzer.
Using the equation (Sample-Min)/(Max-Min)*100% to convert the original data to the inhibition rate, the IC50 value can be obtained by curve fitting with four parameters (obtained by “log(inhibitor) vs. response in GraphPad Prism—Variable slope mode).

c-Met enzyme = c-Met enzyme (Homo sapiens (Human), UniProt P08581); assay: c-Met enzyme activity inhibition (Promega c-Met Kinase Enzyme System, ADP-Glo); format: biochemical; conditions: 10 μM ATP, 60 min, 30° C.
Method: To detect the inhibitory effect of the compounds on c-Met enzyme activity.
The c-Met Kinase Enzyme System was purchased from Promega. Envision multi-label analyzer (PerkinElmer).
The kinase buffer in the kit was used to dilute the enzyme, substrate, ATP and inhibitor.
The compound to be tested was diluted 5-fold to the eighth concentration with a discharge gun, i.e., from 50 μM to […], with a final DMSO concentration of 5%, and double duplicate wells experiment was set. 1 μL of each concentration gradient of the inhibitor, 2 μL of c-Met enzyme (4 ng), 2 μL of a mixture of the substrate and ATP (10 μM ATP, 0.2 μg/μL poly E4Y1) were added to the microplate, and the final concentration gradient of the compound of 10 μM was diluted to 0.13 nM. The reaction system was placed at 30° C. and the reaction was carried out for 60 minutes. When the reaction was completed, 5 μL of ADP-Glo reagent was added to each well and the reaction was carried out at 30° C. for another 40 minutes, when the reaction was completed, 10 μL of kinase detection reagent was added to each well, then the reaction was carried out at 30° C. for still another 30 minutes, chemiluminescence was read by the PerkinElmer Envision multi-label analyzer with an integration time of 0.5 seconds.
Using the equation (Sample-Min)/(Max-Min)*100% to convert the original data to the inhibition rate, the IC50 value can be obtained by curve fitting with four parameters (obtained by log(inhibitor) vs. response in GraphPad Prism—Variable slope mode).

[1] = test system: human lung cancer EBC-1 xenograft tumor; assay: In vivo drug efficacy, human lung cancer EBC-1 xenograft tumor in nude mice; parameters: species or system BALB/c nude mice; conditions: for Tumor volume: n = 6
Method: BALB/c nude mice, female, 6-8 weeks old, weighing about 18-20 grams, animals were raised in SPF-class animal rooms in IVC (independent air supply system, constant temperature and humidity) cages (3 per cage). All cages, bedding and water were disinfected before use. All animals had free access to standard certified commercial laboratory diets. A total of 36 mice purchased from Shanghai Lingchang Biotechnology Co., Ltd. were used for research. Each animal was inoculated with 0.1 mL (5×10^6 cells) of EBC-1 cells on the right back, when the average tumor volume reached 243 mm^3, the animals were randomly grouped and the administration was started. The test compound was orally administered daily, the dose of hydrochloride of compound 24 was 10 mg/kg, the two doses of hydrochloride of compound 25 were 10 mg/kg and 20 mg/kg, respectively, and the dose of hydrochloride of compound 29 was 10 mg/kg. The tumor diameter was measured with vernier calipers twice a week. The calculation formula of tumor volume was: V=0.5a×b^2, a and b represented the long diameter and short diameter of the tumor, respectively. The anti-tumor efficacy of the compound was evaluated by TGI (%) or the relative tumor proliferation rate T/C (%). Relative tumor proliferation rate T/C (%)=TRTV/CRTV×100% (TRTV: average RTV in the treatment group; CRTV: average RTV in the negative control group). The relative tumor volume (RTV) was calculated according to the results of tumor measurement, the calculation formula was RTV=Vt/V0, wherein V0 was the tumor volume measured at the time of the grouping administration (i.e. D0), Vt was the tumor volume at a certain measurement, and TRTV and CRTV were taken on the same day. TGI (%) reflected the tumor growth inhibition rate. TGI (%)=[(1−(average tumor volume of a certain treatment group after administration-average tumor volume of the treatment group at the beginning of administration))/(average tumor volume of the solvent control group after the administration-average tumor volume of the solvent control group at the beginning of the administration)]×100%. Statistical analysis was performed based on RTV data at the end of the experiment, and SPSS software was used for analysis.

Sequence of c-Met enzyme (P08581 956-1390): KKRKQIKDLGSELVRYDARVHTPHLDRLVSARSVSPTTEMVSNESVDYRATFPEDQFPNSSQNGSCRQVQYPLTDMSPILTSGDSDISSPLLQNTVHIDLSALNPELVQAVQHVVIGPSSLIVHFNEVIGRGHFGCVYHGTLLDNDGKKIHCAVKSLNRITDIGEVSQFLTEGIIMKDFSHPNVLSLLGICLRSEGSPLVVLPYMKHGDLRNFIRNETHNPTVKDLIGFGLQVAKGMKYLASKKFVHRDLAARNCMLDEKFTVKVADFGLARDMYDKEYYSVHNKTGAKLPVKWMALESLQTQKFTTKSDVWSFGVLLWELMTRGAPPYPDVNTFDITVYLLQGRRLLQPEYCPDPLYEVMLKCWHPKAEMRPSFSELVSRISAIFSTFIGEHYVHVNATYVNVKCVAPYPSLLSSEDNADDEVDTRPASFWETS

Structure (SMILES)	IC50 (EBC-1 cells; Homo sapiens, EBC-1, 72 h) [nM]	IC50 (c-Met enzyme) [nM]	also measured
CN(C)CCN1CCC(COc2cnc(-c3cccc(Cn4c(=O)ccn5c6cc(C#N)ccc6nc45)c3)nc2)CC1 [Compound 31]	493	–	–
CN1CCC(COc2cnc(-c3cccc(Cn4c5c(ccc4=O)-c4cc(C#N)ccc4C5(F)F)c3)nc2)CC1 [Formate of compound 1]	133	42	–
CN1CCC(COc2cnc(-c3cccc(Cn4c5c(ccc4=O)-c4cc(C#N)ccc4C5=O)c3)nc2)CC1 [Formate of compound 2]	5.79	10	–
CN1CCC(COc2cnc(-c3cccc(Cn4c5c(ccc4=O)-c4cc(F)ccc4C5=O)c3)nc2)CC1 [Formate of compound 3]	32.8	16	–
CN1CCC(COc2cnc(-c3cccc(Cn4c5c(ccc4=O)-c4cc(F)ccc4C5(F)F)c3)nc2)CC1 [Formate of compound 4]	–	167	–
CN1CCC(COc2cnc(-c3cccc(Cn4c5c(ccc4=O)-c4cc(C#N)ccc4OC5)c3)nc2)CC1 [Formate of compound 5]	585	131	–
CN1CCC(COc2cnc(-c3cccc(Cn4c(=O)ccc5c6cc(C#N)ccc6sc54)c3)nc2)CC1 [Hydrochloride of compound 6]	62.8	24.9	–
CN1CCC(COc2cnc(-c3cccc(Cn4c(=O)c(F)cc5c6cc(C#N)ccc6sc54)c3)nc2)CC1 [Hydrochloride of compound 8]	36	21.5	–
CN1CCC(COc2cnc(-c3cccc(Cn4c(=O)ccn5c6ccc(C#N)cc6nc45)c3)nc2)CC1 [Hydrochloride of compound 9]	31.8	21.8	–
CN1CCC(COc2cnc(-c3cccc(Cn4c(=O)ccn5c6cc(C#N)ccc6cc45)c3)nc2)CC1 [Hydrochloride of compound 10]	31.6	15.7	–
CN1CCC(COc2cnc(-c3cccc(Cn4c(=O)ccn5c6cc(C#N)ccc6nc45)c3)nc2)CC1 [Hydrochloride of compound 11]	6.99	3.26	–
CCN1CCC(COc2cnc(-c3cccc(Cn4c5c(ccc4=O)-c4cc(C#N)ccc4C5=O)c3)nc2)CC1 [Hydrochloride of compound 12]	6.66	5.06	–
CCN1CCC(COc2cnc(-c3cccc(Cn4c(=O)c(F)cn5c6cc(C#N)ccc6nc45)c3)nc2)CC1 [Hydrochloride of compound 13]	133	42	–
CN1CCC(COc2cnc(-c3cccc(Cn4c5c(cc(F)c4=O)-c4cc(C#N)ccc4C5(F)F)c3)nc2)CC1 [Hydrochloride of compound 16]	135	45	–
CC(C)N1CCC(COc2cnc(-c3cccc(Cn4c5c(ccc4=O)-c4cc(C#N)ccc4C5=O)c3)nc2)CC1 [Hydrochloride of compound 19]	14.1	13.4	–
CN1CCN(C(=O)Oc2cnc(-c3cccc(Cn4c5c(ccc4=O)-c4cc(C#N)ccc4C5=O)c3)nc2)CC1 [Hydrochloride of compound 20]	–	26	–
CN1CCC(COc2cnc(-c3cccc(Cn4c(=O)ccc5c4nc4ccc(C#N)cn45)c3)nc2)CC1 [Hydrochloride of compound 23]	16.8	6.46	–
CCN1CCC(COc2cnc(-c3cccc(Cn4c(=O)ccn5c6cc(C#N)ccc6nc45)c3)nc2)CC1 [Hydrochloride of compound 24]	4.26	2.03	Tumor volume ([1]; 10 mg/kg oral daily (stopped after 15 days), day 18, mean ± standard error): 123 ± 31 mm^3; Tumor volume ([1]; 10 mg/kg oral daily (stopped after 15 days), day 21, mean ± standard error): 164 ± 45 mm^3; Tumor volume ([1]; 10 mg/kg oral daily (stopped after 15 days), day 25, mean ± standard error): 257 ± 72 mm^3; Tumor volume ([1]; 10 mg/kg oral daily (stopped after 15 days), day 25, mean ± standard error, listed as hydrochloride of compound 24): 257 mm^3; Tumor volume ([1]; 10 mg/kg oral daily (stopped after 15 days), day 27, mean ± standard error): 366 ± 92 mm^3; TGI (tumor growth inhibition rate) ([1]; 10 mg/kg oral daily, 25th day): 99.3%; TRTV/CRTV (relative tumor proliferation rate T/C) ([1]; 10 mg/kg oral daily, 25th day): 13.7%; Tumor volume ([1]; 10 mg/kg oral daily, day 0, mean ± standard error): 244 ± 23 mm^3; Tumor volume ([1]; 10 mg/kg oral daily, day 4, mean ± standard error): 270 ± 22 mm^3; Tumor volume ([1]; 10 mg/kg oral daily, day 7, mean ± standard error): 224 ± 16 mm^3; Tumor volume ([1]; 10 mg/kg oral daily, day 11, mean ± standard error): 142 ± 24 mm^3; Tumor volume ([1]; 10 mg/kg oral daily, day 14, mean ± standard error): 120 ± 25 mm^3
N#Cc1ccc2nc3n(Cc4cccc(-c5ncc(OCC6CCN(C7COC7)CC6)cn5)c4)c(=O)ccn3c2c1 [Hydrochloride of compound 26]	16.2	3.12	–
CN1CCC(COc2cnc(-c3cccc(Cn4c(=O)ccc5c4nn4ccc(C#N)cc54)c3)nc2)CC1 [Hydrochloride of compound 27]	38	17.7	–
CN1CC2(CC(Oc3cnc(-c4cccc(Cn5c(=O)ccn6c7cc(C#N)ccc7nc56)c4)nc3)C2)C1 [Hydrochloride of compound 28]	66	58	–
CN1CCC(COc2cnc(-c3cccc(Cn4c(=O)ccn5c6cc(C#N)cnc6nc45)c3)nc2)CC1 [Hydrochloride of compound 32]	816	–	–
CC(C)N1CCC(COc2cnc(-c3cccc(Cn4c(=O)ccn5c6cc(C#N)cnc6nc45)c3)nc2)CC1 [Hydrochloride of compound 33]	899	–	–
COCCN1CCC(COc2cnc(-c3cccc(Cn4c(=O)ccn5c6cc(C#N)ccc6nc45)c3)nc2)CC1 [Hydrochloride of compound 35]	5.8	11.6	–
CS(=O)(=O)CCN1CCC(COc2cnc(-c3cccc(Cn4c(=O)ccn5c6cc(C#N)ccc6nc45)c3)nc2)CC1 [Hydrochloride of compound 42]	–	15.2	–
CCCN1CCC(COc2cnc(-c3cccc(Cn4c(=O)ccn5c6cc(C#N)ccc6nc45)c3)nc2)CC1 [Hydrochloride of compound 43]	7.32	–	–
N#Cc1ccc2nc3n(Cc4cccc(-c5ncc(OCC6CCN(C7CCC7)CC6)cn5)c4)c(=O)ccn3c2c1 [Hydrochloride of compound 44]	–	–	IC50 (EBC-1 cells): 6.83 nM
N#Cc1ccc2nc3n(Cc4cccc(-c5ncc(OCC6CCN(C7CCC7)CC6)cn5)c4)c(=O)ccn3c2c1 [Hydrochloride of compound 45]	–	–	IC50 (EBC-1 cells): 19.3 nM
CC(C)N1CC(COc2cnc(-c3cccc(Cn4c(=O)ccn5c6cc(C#N)ccc6nc45)c3)nc2)C1 [Hydrochloride of compound 46]	12.2	–	–
